From ChEMBL document CHEMBL2029323, “The discovery and development of selective 3-fluoro-4-aryloxyallylamine inhibitors of the amine oxidase activity of semicarbazide-sensitive amine oxidase/vascular adhesion protein-1 (SSAO/VAP-1)” (Bioorg Med Chem Lett, 2012)
pIC50, pKi: −log10 of the molar value.

Tests used:
[1] = biological target: T1, Amine oxidase [flavin-containing] B (Homo sapiens, UniProt P27338); test: Inhibition of human recombinant MAO-B assessed as H2O2 production by Resorufin/Amplex Red assay
T1 sequence (P27338 whole entry): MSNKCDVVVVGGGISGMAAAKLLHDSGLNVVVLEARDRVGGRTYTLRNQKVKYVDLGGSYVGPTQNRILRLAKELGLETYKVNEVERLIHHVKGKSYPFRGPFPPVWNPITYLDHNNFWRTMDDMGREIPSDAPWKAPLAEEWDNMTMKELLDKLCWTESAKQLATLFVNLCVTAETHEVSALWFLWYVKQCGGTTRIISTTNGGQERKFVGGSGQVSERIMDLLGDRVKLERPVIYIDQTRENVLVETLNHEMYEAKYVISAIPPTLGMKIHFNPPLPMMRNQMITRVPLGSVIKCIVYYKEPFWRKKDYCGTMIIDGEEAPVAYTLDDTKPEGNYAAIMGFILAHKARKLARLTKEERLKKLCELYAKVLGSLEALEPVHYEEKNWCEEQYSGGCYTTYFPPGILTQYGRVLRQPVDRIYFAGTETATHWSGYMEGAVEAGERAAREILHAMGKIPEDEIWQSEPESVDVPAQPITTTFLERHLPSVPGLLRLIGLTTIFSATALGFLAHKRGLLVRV

[2] = biological target: T2, Amine oxidase [copper-containing] 3 (Homo sapiens, UniProt Q16853); test: Inhibition of human recombinant SSAO/VAP1 assessed as H2O2 production by Resorufin/Amplex Red assay
T2 sequence (Q16853 whole entry): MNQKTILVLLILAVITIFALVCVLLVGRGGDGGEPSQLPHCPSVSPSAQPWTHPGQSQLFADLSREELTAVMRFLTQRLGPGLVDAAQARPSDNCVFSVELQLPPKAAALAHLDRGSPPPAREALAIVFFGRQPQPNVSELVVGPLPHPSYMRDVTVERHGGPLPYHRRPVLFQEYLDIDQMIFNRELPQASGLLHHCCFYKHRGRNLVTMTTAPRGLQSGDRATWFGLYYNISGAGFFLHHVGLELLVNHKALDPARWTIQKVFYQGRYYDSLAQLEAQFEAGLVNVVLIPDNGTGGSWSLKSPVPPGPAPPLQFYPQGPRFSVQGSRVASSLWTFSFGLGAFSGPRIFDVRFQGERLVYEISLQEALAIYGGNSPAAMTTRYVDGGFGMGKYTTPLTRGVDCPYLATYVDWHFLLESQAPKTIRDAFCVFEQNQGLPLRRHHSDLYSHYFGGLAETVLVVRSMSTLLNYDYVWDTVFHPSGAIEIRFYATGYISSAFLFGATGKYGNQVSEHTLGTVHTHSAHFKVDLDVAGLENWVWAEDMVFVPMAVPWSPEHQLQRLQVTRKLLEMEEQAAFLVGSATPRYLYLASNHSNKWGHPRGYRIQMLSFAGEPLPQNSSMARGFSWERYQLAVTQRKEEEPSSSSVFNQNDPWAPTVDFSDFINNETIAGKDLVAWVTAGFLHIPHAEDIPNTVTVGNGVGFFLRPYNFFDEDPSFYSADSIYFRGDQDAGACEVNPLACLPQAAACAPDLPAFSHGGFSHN

[3] = biological target: T3, Amine oxidase [copper-containing] 3 (Mus musculus, UniProt O70423); test: Inhibition of SSAO/VAP1 in mouse adipocytes measuring H2O2 production by Resorufin/Amplex Red assay; type: cell-based
T3 sequence (O70423 whole entry): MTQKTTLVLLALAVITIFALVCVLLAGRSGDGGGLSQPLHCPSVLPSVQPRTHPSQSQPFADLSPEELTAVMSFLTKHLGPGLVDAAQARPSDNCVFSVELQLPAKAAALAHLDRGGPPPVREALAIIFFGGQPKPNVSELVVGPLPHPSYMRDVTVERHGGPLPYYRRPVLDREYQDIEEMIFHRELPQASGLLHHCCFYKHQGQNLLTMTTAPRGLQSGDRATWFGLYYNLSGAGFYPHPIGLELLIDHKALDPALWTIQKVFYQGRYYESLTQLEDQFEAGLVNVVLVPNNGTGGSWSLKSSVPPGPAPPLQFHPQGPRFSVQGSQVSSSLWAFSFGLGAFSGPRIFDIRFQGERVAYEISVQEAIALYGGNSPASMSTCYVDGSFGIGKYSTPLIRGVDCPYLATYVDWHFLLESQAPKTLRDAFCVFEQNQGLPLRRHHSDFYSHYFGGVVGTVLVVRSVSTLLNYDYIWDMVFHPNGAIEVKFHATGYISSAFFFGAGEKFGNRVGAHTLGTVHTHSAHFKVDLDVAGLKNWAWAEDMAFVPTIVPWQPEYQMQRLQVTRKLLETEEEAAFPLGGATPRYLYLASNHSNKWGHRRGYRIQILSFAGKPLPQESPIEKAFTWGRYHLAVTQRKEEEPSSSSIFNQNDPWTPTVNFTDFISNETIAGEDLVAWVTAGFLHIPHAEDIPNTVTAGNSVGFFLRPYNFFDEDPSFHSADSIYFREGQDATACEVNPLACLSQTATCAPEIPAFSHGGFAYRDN

[4] = biological target: T4, Amine oxidase [flavin-containing] A (Homo sapiens, UniProt P21397); test: Inhibition of human recombinant MAO-A assessed as H2O2 production by Resorufin/Amplex Red assay
T4 sequence (P21397 whole entry): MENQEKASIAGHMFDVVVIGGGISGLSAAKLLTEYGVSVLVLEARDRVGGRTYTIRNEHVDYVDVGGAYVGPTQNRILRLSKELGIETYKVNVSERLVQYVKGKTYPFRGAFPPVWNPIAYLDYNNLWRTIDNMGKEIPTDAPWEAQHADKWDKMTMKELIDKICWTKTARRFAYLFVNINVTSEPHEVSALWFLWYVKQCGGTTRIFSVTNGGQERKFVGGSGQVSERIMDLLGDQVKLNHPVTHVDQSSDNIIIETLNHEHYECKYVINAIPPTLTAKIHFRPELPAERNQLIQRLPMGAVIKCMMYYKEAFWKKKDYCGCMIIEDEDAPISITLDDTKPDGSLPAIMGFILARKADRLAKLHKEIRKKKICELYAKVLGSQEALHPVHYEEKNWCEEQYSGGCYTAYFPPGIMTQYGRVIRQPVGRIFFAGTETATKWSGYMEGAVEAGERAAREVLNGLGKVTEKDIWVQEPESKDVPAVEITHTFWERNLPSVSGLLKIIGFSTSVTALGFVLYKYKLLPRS

[5] = biological target: recombinant human DAO (diamine oxidase) (Homo sapiens, UniProt P19801); test: Inhibition of human DAO measuring H2O2 production by Resorufin/Amplex Red assay
[6] = biological target: T5, Amine oxidase [copper-containing] 2 (Homo sapiens, UniProt O75106); test: Inhibition of human AOC2
T5 sequence (O75106 whole entry): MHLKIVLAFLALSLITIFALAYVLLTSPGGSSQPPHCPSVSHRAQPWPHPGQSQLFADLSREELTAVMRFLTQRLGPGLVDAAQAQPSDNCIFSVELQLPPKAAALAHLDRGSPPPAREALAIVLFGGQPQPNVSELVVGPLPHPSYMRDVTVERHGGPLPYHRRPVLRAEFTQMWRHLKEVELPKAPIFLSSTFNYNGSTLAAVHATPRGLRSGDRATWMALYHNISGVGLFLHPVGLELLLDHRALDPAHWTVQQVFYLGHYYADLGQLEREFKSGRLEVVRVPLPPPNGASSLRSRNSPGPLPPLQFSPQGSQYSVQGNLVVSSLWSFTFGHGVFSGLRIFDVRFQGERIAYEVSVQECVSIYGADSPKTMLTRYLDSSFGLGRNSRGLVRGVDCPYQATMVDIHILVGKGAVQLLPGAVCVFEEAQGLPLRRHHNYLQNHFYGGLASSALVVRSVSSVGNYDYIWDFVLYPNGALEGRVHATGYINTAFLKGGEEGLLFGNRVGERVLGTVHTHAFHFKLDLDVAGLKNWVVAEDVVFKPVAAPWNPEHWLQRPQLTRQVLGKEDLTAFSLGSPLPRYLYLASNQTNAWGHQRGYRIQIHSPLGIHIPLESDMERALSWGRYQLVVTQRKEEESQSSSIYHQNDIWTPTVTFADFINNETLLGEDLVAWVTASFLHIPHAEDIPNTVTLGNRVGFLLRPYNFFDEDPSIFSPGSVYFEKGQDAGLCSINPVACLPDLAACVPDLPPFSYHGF

Rattus norvegicus = test: Inhibition of SSAO/VAP1 in po dosed rat gonadal adipose tissue after 6 hrs; type: functional, organism-based
Mus musculus = test: Inhibition of SSAO/VAP1 in po dosed mouse gonadal adipose tissue after 6 hrs; type: functional, organism-based
Salmonella typhimurium = test: Mutagenic activity in Salmonella typhimurium by Ames test; type: toxicity, organism-based; details: salmonella enterica subsp. enterica serovar typhimurium
[7] = biological target: T2, Amine oxidase [copper-containing] 3; test: Inhibition of human SSAO/VAP1 measuring H2O2 production by Kitz and Wilson plot analysis
[8] = Inhibition of CYP450; type: ADME
[9] = Oral bioavailability in rat; type: ADME, organism-based; details: in vivo
[10] = Half life in po dosed rat; type: ADME, organism-based; details: in vivo

Structure (SMILES)	pIC50 [1]	pIC50 [2]	pIC50 [4]	further results
CN(C)C(=O)c1ccc(OC/C(F)=C\CN)cc1	4.72	6.43	–	–
NC/C=C(/F)COc1ccc(C(=O)NC2CCCC2)cc1	5.79	7.70	< 4.52	pIC50 [3]: 6.28; pIC50 [5]: < 4.52
NC/C=C(/F)COc1ccc(C(N)=O)cc1	< 4.52	5.97	< 4.52	–
CC(C)(C)c1ccc(OC/C(F)=C\CN)cc1	5.19	6.68	< 4.52	–
NC/C=C(/F)COc1cccc(Cl)c1	7.52	6.60	–	–
NCC=CCOc1ccccc1 [listing 1 of 2 here]	–	4.09	–	–
CSc1ccc(OC/C(F)=C\CN)cc1	6.80	7.70	–	–
NC/C=C(/F)COc1cccc(C(F)(F)F)c1	7.52	6.82	< 5.00	–
COc1ccc(OC/C(F)=C\CN)cc1	6.51	6.80	–	–
NC/C=C(/F)COc1ccc(Oc2ccccc2)cc1	6.35	6.62	–	–
NC/C=C(/F)COc1ccc([N+](=O)[O-])cc1	8.00	7.15	–	–
NC/C=C(/F)COc1ccc(C(=O)NC2CCCCC2)cc1	5.95	8.00	< 4.52	pIC50 [6]: < 5.00; EC50 (Rattus norvegicus): 10 mg/kg; EC50 (Mus musculus): 10 mg/kg; pIC50 [3]: 6.82; Activity (Salmonella typhimurium): Non-toxic; pKi [7]: 5.79; inhibition (INH) [8]: Not Active; pIC50 [5]: 4.58; bioavailability [9]: 62%; half-life [10]: 1.62 h
C[C@H](NC(=O)c1ccc(OC/C(F)=C\CN)cc1)c1ccccc1	5.19	7.40	< 4.52	pIC50 [3]: 6.89; pIC50 [5]: 4.13
NC/C=C(/F)COc1ccccc1	6.74	6.54	< 4.52	–
NCC=CCOc1ccccc1 [listing 2 of 2 here]	–	< 4.00	–	–
NC/C=C(/F)COc1ccc(OC(F)(F)F)cc1	7.15	6.74	–	–
C[C@@H](NC(=O)c1ccc(OC/C(F)=C\CN)cc1)c1ccccc1	5.79	7.52	< 4.52	pIC50 [5]: 5.61
NC/C(=C/F)CCc1ccc(F)cc1 [MOFEGILINE]	8.00	7.70	5.75	pIC50 [3]: 8.00; pKi [7]: 5.79; pIC50 [5]: < 5.00
NC/C=C(\F)COc1ccccc1	–	4.70	–	–
NC/C=C(/F)COc1ccc(C(=O)N2CCCC2)cc1	4.96	6.85	–	–
NC/C=C(/F)COc1ccc(F)c(F)c1	7.05	6.72	–	–
CN(Cc1ccccc1)C(=O)c1ccc(OC/C(F)=C\CN)cc1	5.66	6.59	–	–
CC(NC(=O)c1ccc(OC/C(F)=C\CN)cc1)c1ccccc1 (racemic)	5.53	7.40	–	–
NC/C=C(/F)COc1ccc(C(F)(F)F)cc1	6.89	7.40	–	–
NC/C=C(/F)COc1ccc(C(=O)NCc2ccccc2)cc1	6.21	7.10	–	–
